The values below come from patent US9334246B2, “Substituted triazines for malaria treatment and chemoprophylaxis” (The United States of America, as represented by the …, priority 2013, dated 2016).

Holding throughout (assay type): cell-based, Plasmodium falciparum
Assay [1] relates to P. falciparum D6. The assay is described as follows: Malaria SYBR Green Fluorescence Assay, D6 strain. The note with it: for D6: SYBR Green Assay.
Assay [2] deals with P. falciparum W2. The assay is described as follows: Malaria SYBR Green Fluorescence Assay, W2 strain. The following applies: for W2: SYBR Green Assay.
The subject of assay [3] is P. falciparum C235. Put plainly: Malaria SYBR Green Fluorescence Assay, C235 strain. The following applies: for C235: SYBR Green Assay.

As to `CN1CCC(CNc2nc(-c3ccc(C(C)(C)C)cc3)nc(C(Cl)(Cl)Cl)n2)CC1` [Cmpd 507], the “D6 (SYBR Green Assay IC50)” value in assay [1] came to 43 ng/mL. For the same compound, in assay [2], the “W2 (SYBR Green Assay IC50)” value is 39 ng/mL. Also, in assay [3], the “C235 (SYBR Green Assay IC50)” value turned out to be 43 ng/mL.
With `ClC(Cl)(Cl)c1nc(NCCc2cnccn2)nc(-c2ccccc2)n1` [Cmpd 540], the “D6 (SYBR Green Assay IC50)” value in assay [1] turned out to be 151 ng/mL. Also, the “W2 (SYBR Green Assay IC50)” value in assay [2] was found to be 88 ng/mL. Besides, the “C235 (SYBR Green Assay IC50)” value in assay [3] is listed as 213 ng/mL.
Turning to `CSc1ccc(-c2nc(NCC3CCN(C)CC3)nc(C(Cl)(Cl)Cl)n2)cc1` [Cmpd 509], the “D6 (SYBR Green Assay IC50)” value in assay [1] came out at 294 ng/mL. In assay [2], the “W2 (SYBR Green Assay IC50)” value was 98 ng/mL. For the same compound, in assay [3], the “C235 (SYBR Green Assay IC50)” value stood at 167 ng/mL.
For the compound `OCCN1CCCN(c2nc(-c3ccc4ccccc4c3)nc(C(Cl)(Cl)Cl)n2)CC1` [Cmpd 459], the “D6 (SYBR Green Assay IC50)” value in assay [1] is on record as 163 ng/mL. Besides, in assay [2], the “W2 (SYBR Green Assay IC50)” value is 108 ng/mL. In addition, the “C235 (SYBR Green Assay IC50)” value in assay [3] is on record as 153 ng/mL.
On to `COc1ncccc1Nc1nc(NCCC2CCCN2C)nc(C(Cl)(Cl)Cl)n1` (stereo not drawn) [Cmpd 346], for which the D6 in assay [1] stood at 62 ng/mL. The compound further returned a W2 in assay [2] of 52 ng/mL. Further, the C235 in assay [3] was found to be 116 ng/mL.
The matching figures for “CSc1ccc(cc1)c2nc(nc(n2)C(Cl)(Cl)Cl)N3CC4CC3CN4C(═O)OC(C)(C)C [Compound 710]”: 145 ng/mL, 281 ng/mL and 571 ng/mL.
Turning to `COc1ncccc1Nc1nc(N2CCN(C)CC2)nc(C(Cl)(Cl)Cl)n1` [Cmpd 353], the “D6 (SYBR Green Assay IC50)” value in assay [1] worked out at 101 ng/mL. In assay [2], the “W2 (SYBR Green Assay IC50)” value is given as 80 ng/mL. Also, in assay [3], the “C235 (SYBR Green Assay IC50)” value was found to be 211 ng/mL.
For the compound `CN1CCC(CNc2nc(-c3ccccc3)nc(C(Cl)(Cl)Cl)n2)CC1` [Cmpd 512], the “D6 (SYBR Green Assay IC50)” value in assay [1] stood at 103 ng/mL. Moreover, the “W2 (SYBR Green Assay IC50)” value in assay [2] stood at 30 ng/mL. Also, the “C235 (SYBR Green Assay IC50)” value in assay [3] was determined as 57 ng/mL.
On to `CN(C)CCCNc1nc(C(Cl)(Cl)Cl)nc(C(Cl)(Cl)Cl)n1.ClC(Cl)(Cl)c1ccc(C(Cl)(Cl)Cl)cc1` [Cmpd 604], for which the “D6 (SYBR Green Assay IC50)” value in assay [1] is given as 224 ng/mL. Also, in assay [2], the “W2 (SYBR Green Assay IC50)” value came to 363 ng/mL. Besides, the “C235 (SYBR Green Assay IC50)” value in assay [3] was found to be 628 ng/mL.
Turning to `CS(=O)(=O)c1ccc(-c2nc(NCc3ccccn3)nc(C(Cl)(Cl)Cl)n2)cc1` [Cmpd 177], the D6 in assay [1] is 355 ng/mL. The compound also returned a W2 in assay [2] of 186 ng/mL. Also, in assay [3], the C235 was 565 ng/mL.
The matching figures for `CCN1CCC(CNc2nc(Cc3ccccc3OC)nc(C(Cl)(Cl)Cl)n2)CC1` [Cmpd 293]: 48 ng/mL, 13 ng/mL and 70 ng/mL.
With `CCN(CC)CCNc1nc(-c2cc(OC)cc(OC)c2)nc(C(Cl)(Cl)Cl)n1` [Cmpd 479], the “D6 (SYBR Green Assay IC50)” value in assay [1] is recorded as 38 ng/mL. The “W2 (SYBR Green Assay IC50)” value in assay [2] amounted to 12 ng/mL. The “C235 (SYBR Green Assay IC50)” value in assay [3] came out at 17 ng/mL.
Regarding `COc1ccc(-c2nc(NCC(C)(C)N)nc(C(Cl)(Cl)Cl)n2)cc1OC` [Cmpd 396], the “D6 (SYBR Green Assay IC50)” value in assay [1] came out at 86 ng/mL. In addition, in assay [2], the “W2 (SYBR Green Assay IC50)” value is reported as 49 ng/mL. Also, the “C235 (SYBR Green Assay IC50)” value in assay [3] is listed as 117 ng/mL.
In assay [1], `CCN1CCCC(Nc2nc(Cc3ccccc3OC)nc(C(Cl)(Cl)Cl)n2)C1` (stereo not drawn) [Cmpd 94] gave a D6 of 396 ng/mL. For the same compound, in assay [2], the W2 is given as 173 ng/mL. The C235 in assay [3] turned out to be 456 ng/mL.
For `COc1ccc(-c2nc(N3CCCN(CCO)CC3)nc(C(Cl)(Cl)Cl)n2)c2ccccc12` [Cmpd 463], in assay [1], the “D6 (SYBR Green Assay IC50)” value came to 355 ng/mL. Moreover, the “W2 (SYBR Green Assay IC50)” value in assay [2] is 201 ng/mL. Moreover, the “C235 (SYBR Green Assay IC50)” value in assay [3] was 306 ng/mL.
In assay [1], “CC(C)CN1CCC(CC1)NC1═NC(═NC(═N1)C(Cl)(Cl)Cl)C1═CC═C(Cl)C(Cl)═C1 [Compound 692]” had a D6 of 32 ng/mL. Further, the W2 in assay [2] was 24 ng/mL. Moreover, the C235 in assay [3] is listed as 43 ng/mL.
Regarding `CCN(CC)CCNc1nc(-c2ccc(Cl)cc2)nc(C(Cl)(Cl)Cl)n1` [Cmpd 286], in assay [1], the D6 is listed as 5 ng/mL. This compound showed a W2 in assay [2] of 2 ng/mL. The compound further registered a C235 in assay [3] of 10 ng/mL.
The compound `CC(=O)Nc1cccc(Nc2nc(-c3ccc(S(C)(=O)=O)cc3)nc(C(Cl)(Cl)Cl)n2)c1` [Compound 691, CC(═O)Nc1cccc(Nc2nc(nc(n2)C(Cl)(Cl)Cl)c3ccc(cc3)S(═O)(═O)C)c1] came in with a D6 in assay [1] of 341 ng/mL. In assay [2], this compound registered a W2 of 256 ng/mL. This compound displayed a C235 in assay [3] of 705 ng/mL.
On to `CSc1ccc(-c2nc(NCC3(N)CCCCC3)nc(C(Cl)(Cl)Cl)n2)cc1` [Compound 664, CSC1═CC═C(C═C1)C1═NC(NCC2(N)CCCCC2)═NC(═N1)C(Cl)(Cl)Cl], for which the D6 in assay [1] was found to be 18 ng/mL. In assay [2], the W2 was found to be 21 ng/mL. This compound registered a C235 in assay [3] of 47 ng/mL.
On to `CC(C)N1CCC(CNc2nc(-c3ccc(C(C)(C)C)cc3)nc(C(Cl)(Cl)Cl)n2)CC1` [Cmpd 488], for which the “D6 (SYBR Green Assay IC50)” value in assay [1] was 27 ng/mL. In assay [2], the “W2 (SYBR Green Assay IC50)” value turned out to be 16 ng/mL. The “C235 (SYBR Green Assay IC50)” value in assay [3] came out at 20 ng/mL.
In turn, “CS(═O)(═O)C1═CC═C(C═C1)C1═NC(NCC2(N)CCCCC2)═NC(═N1)C(Cl)(Cl)Cl [Compound 665]” registered a D6 in assay [1] of 76 ng/mL. The W2 in assay [2] is given as 76 ng/mL. For the same compound, the C235 in assay [3] is on record as 147 ng/mL.
On to `COc1ccc(Nc2nc(NCC(C)(C)N)nc(C(Cl)(Cl)Cl)n2)cn1` [Cmpd 403], for which, in assay [1], the “D6 (SYBR Green Assay IC50)” value is on record as 134 ng/mL. Further, the “W2 (SYBR Green Assay IC50)” value in assay [2] was found to be 78 ng/mL. Further, the “C235 (SYBR Green Assay IC50)” value in assay [3] came out at 203 ng/mL.
Consider “NC1(CNC2═NC(═NC(═N2)C2═CC(Cl)═CC(Cl)═C2)C(Cl)(Cl)Cl)CC1 [Compound 683]”, for which the D6 in assay [1] is listed as 727 ng/mL. For the same compound, the W2 in assay [2] is reported as 503 ng/mL. The same compound gave a C235 in assay [3] of 795 ng/mL.
For the compound `CSc1ccc(-c2nc(NCC3CCN(C(C)C)CC3)nc(C(Cl)(Cl)Cl)n2)cc1` [Cmpd 490], in assay [1], the “D6 (SYBR Green Assay IC50)” value is given as 91 ng/mL. The “W2 (SYBR Green Assay IC50)” value in assay [2] amounted to 49 ng/mL. For the same compound, in assay [3], the “C235 (SYBR Green Assay IC50)” value turned out to be 67 ng/mL.
In turn, “Clc1ccc(cc1Cl)c2nc(nc(n2)C(Cl)(Cl)Cl)N3CC4CC3CN4 [Compound 716]” yielded a D6 in assay [1] of 540.4 ng/mL. The compound also came in with a W2 in assay [2] of 335.2 ng/mL. The C235 in assay [3] is on record as 439.4 ng/mL.
Consider `ClC(Cl)(Cl)c1nc(NCCCN2CCCC2)nc(-c2ccccc2)n1` [Cmpd 406], for which the “D6 (SYBR Green Assay IC50)” value in assay [1] turned out to be 77 ng/mL. For the same compound, the “W2 (SYBR Green Assay IC50)” value in assay [2] amounted to 35 ng/mL. For the same compound, the “C235 (SYBR Green Assay IC50)” value in assay [3] worked out at 89 ng/mL.
In the case of `NC1CCN(c2nc(-c3ccccc3)nc(C(Cl)(Cl)Cl)n2)CC1` [Compound 621, NC1CCN(CC1)C1═NC(═NC(═N1)C1═CC═CC═C1)C(Cl)(Cl)Cl], the “D6 (SYBR Green Assay IC50)” value in assay [1] turned out to be 290 ng/mL. In assay [2], the “W2 (SYBR Green Assay IC50)” value is on record as 101 ng/mL. Besides, the “C235 (SYBR Green Assay IC50)” value in assay [3] amounted to 319 ng/mL.
`ClC(Cl)(Cl)c1nc(NCCc2ccccn2)nc(-c2ccccc2)n1` [Cmpd 188] registered a D6 in assay [1] of 176 ng/mL. The compound further displayed a W2 in assay [2] of 42 ng/mL. Further, the C235 in assay [3] was found to be 197 ng/mL.
Consider `CC(C)N1CCC(CNc2nc(-c3ccccc3[N+](=O)[O-])nc(C(Cl)(Cl)Cl)n2)CC1` [Cmpd 497], for which the “D6 (SYBR Green Assay IC50)” value in assay [1] was found to be 913 ng/mL. For the same compound, the “W2 (SYBR Green Assay IC50)” value in assay [2] is 176 ng/mL. Further, the “C235 (SYBR Green Assay IC50)” value in assay [3] was 469 ng/mL.
